Laboratory results: patent US20060264367A1, “Prevention of fibrosis following cardiac injury” (Howard Florey Institute, priority 2005, published 2006)

Tests used:
Format in all cases: cell-based, rat
[1] = test system: atrial and ventricular fibroblasts; test: Cardiac fibroblast proliferation (cell counts and [3H]-thymidine incorporation); settings: for increase in fibroblast proliferation: 3 days; for increase in atrial and ventricular fibroblast proliferation: 72 h
Protocol: The ability of rhRLX to modulate cardiac fibroblast proliferation was investigated in the absence or presence of Ang II and IGF-I, which both potently stimulate fibroblast proliferation. Cardiac fibroblasts were plated at an equal density of 10^4 cells/96-well plate in DMEM-FBS. Twenty-four hours later, media were changed to DMEM supplemented with lactalbumin hydrolysate, and cells were labelled with [^3H]-thymidine (3 μCi/ml) in the presence of rhRLX (100 ng/ml) alone or in combination with IGF-I (0.1 μg/ml, 0.5 μg/ml, and 1 μg/ml) or Ang II (10^−8 M and 10^−7 M) for 72 hours. [^3H]-thymidine incorporation and cell counts, using a hemocytometer, were evaluated.

MMP-2 = test: Gelatin zymography of conditioned media, MMP-2 expression; settings: TGF-β 2 ng/ml alone, 72 h
Protocol: The effects of rhRLX on MMP expression, were determined using gelatin zymography of conditioned media, performed as previously described (Talhouk R S et al. (1991) 112:439-449). Briefly, the neonatal cardiac cells (1×10^5/cm^2) were treated with either TGF-β (2 ng/ml) or Ang II (10^−7 M) in the absence or presence of rhRLX (100 ng/ml) for 72 h; the final 24 hours of treatment were under serum-free conditions. Equal aliquots of the collected media were then analyzed on zymogram gels consisting of 7.5% acrylamide and 1 mg/ml gelatin, and the gels were subsequently treated as previously detailed (Talhouk R S, supra).

[2] = test system: atrial and ventricular fibroblasts; test: Collagen secretion into media by cardiac fibroblasts ([3H]-proline labelling); settings: 72 h
Protocol: (§1) Distribution of relaxin and LGR7 expression was determined in atrial myocytes and fibroblasts, ventricular myocytes and fibroblasts, and vascular smooth muscle cells (VSMC). These cells were obtained from neonate rats using standard collagenase digestion methods. Neonate (1 day old) Sprague Dawley rats were used for tissue collection and subsequent cardiac cell isolation and preparation. The cells were maintained in DMEM supplemented with 10% fetal calf serum, penicillin (50 U/ml), and streptomycin (50 μg/ml) (DMEM-FBS). Cardiac fibroblast isolation from myocytes and subsequent preparation were performed as described previously (Gray M O et al. (1998) Cardiovasc Res 40:352-363). These preparations contained more than 95% cardiac fibroblasts as determined by morphological appearance and immunocytochemical staining. Fibroblasts were used between passages 2 and 4 for all studies.
Atrial and ventricular fibroblasts were subjected to TGF-β or Ang II in the absence or presence of rhRLX over 3 days. For the TGF-β studies, cells were treated for 72 hours with rhRLX (100 ng/ml), TGF-β (1 or 2 ng/ml), or a combination of rhRLX (100 ng/ml) and TGF-β (2 ng/ml) in serum-free DMEM supplemented with lactalbumin hydrolysate. For the Ang II studies, fibroblasts were treated with Ang II (1×10^−7 M and 5×10^−7 M) or a combination of rhRLX (100 ng/ml) and Ang II (1 or 5×10^−7 M). TGF-B3 (1 ng/ml) alone induced an 85-95% increase in secretion of interstitial (types I and III) collagen into the cultured media.
For measurement of collagen synthesis, collagen was biosynthetically labelled with [^3H]-proline in the presence of ascorbate and β-aminopropionitrile, as previously described (Unemori et al, supra). For measurement of collagen deposition into the cell matrix, cell layers (per well) were isolated and hydrolyzed with 6 M hydrochloric acid for measurement of hydroxyproline content, as described previously (Samuel C S et al. (1996) Endocrinology 137:3884-3890; Gallop P M, Paz M A (1975) Physiol Rev 55:418487). […]

α-SMA = test: Fibroblast differentiation to myofibroblasts, Western blot of α-SMA; settings: TGF-β 2 ng/ml or Ang II 10^−7 M alone, 72 h, ventricular fibroblasts
Source text: In the normal heart, cardiac fibroblasts are relatively quiescent, but upon pathological stimuli to the heart they proliferate and differentiate into activated myofibroblasts. These myofibroblasts, the hallmarks of which are α-SMA expression and production of prodigious amounts of collagen, are important contributors to fibrosis and the pathology of the heart (Eghbali M (1998) Basic Res Cardiol 87(Suppl 2):183-189; Bouzegrhane F, Thibault G (2002) Cardiovasc Res 53:304-312). Ventricular fibroblast differentiation to myofibroblasts was analyzed by measuring α-SMA expression by ventricular fibroblasts. In all experiments, an equal amount of total protein (10 μg/sample) was analyzed. α-SMA was sized at 43 kDa under nonreducing conditions when detected with a monoclonal antibody. In some experiments, cells were either untreated or treated with TGF-β (2 ng/ml) alone or TGF-β (2 ng/ml) and rhRLX (100 ng/ml) for 72 hours. In other experiments, cells were either untreated or treated with Ang II (10^−7 M) alone or Ang II (10^−7 M) and rhRLX (100 ng/ml) for 72 hours.
Fibroblast differentiation into myofibroblasts was determined by α-SMA expression. […] Cell layers were trypsinized, and the protein was extracted using Trizol reagent (according to the manufacturer's instructions; Life Technologies, Gaithersburg, Md.) and analyzed by the Bio-Rad dye-binding protein assay (Bio-Rad, Richmond, Calif.). […]

[3] = test system: atrial and ventricular fibroblasts; test: Collagen deposition into the cell matrix (hydroxyproline content of cell layers); settings: stimulus alone, 72 h
Protocol: as §1
Fibroblasts were also plated at 5/mm^2 and grown for 7 days in the absence or presence of rhRLX (100 ng/ml). […]
Collagen content of cell layers from untreated fibroblasts and cells treated with rhRLX (100 ng/ml) alone, TGF-β (2 ng/ml) alone, or TGF-β (2 ng/ml) and rhRLX (100 ng/ml) was measured after 72 hours of culture. The collagen content of cell layers from untreated atrial fibroblasts and cells treated with Ang II (10^−7 M) alone or Ang II (10^−7 M) and rhRLX (100 ng/ml) was measured after 72 hours of culture. […]

IGF-I: growth factor that potently stimulates fibroblast proliferation
increase in fibroblast proliferation ([1]; IGF-I 0.1 μg/ml): 27-30% | increase in fibroblast proliferation ([1]; IGF-I 0.5 μg/ml): 36-40% | increase in fibroblast proliferation ([1]; IGF-I 1.0 μg/ml): 34-40%

TGF-β
MMP-2 expression (MMP-2): modest increase | increase in secretion of interstitial (types I and III) collagen into the cultured media ([2]; 1 ng/ml alone): 85-95% | increase in α-SMA expression (α-SMA): 85-95% | up-regulation of collagen deposition into the matrix of fibroblasts [3]: 65-85%

angiotensin II (DRVYIHPF; Angiotensin-2; UniProt P01019 25-32, looked up) [Ang II, angiotensin II, profibrotic stimulus obtained from Sigma-Aldrich]
increase in collagen secretion ([2]; Ang II 1×10^−7 M alone): 50-60% | increase in collagen secretion ([2]; Ang II 5×10^−7 M alone): 15-20% | increase in atrial and ventricular fibroblast proliferation ([1]; Ang II 10^−7 M): 6473% | increase in atrial and ventricular fibroblast proliferation ([1]; Ang II 10^−8 M): 63-75% | increase in α-SMA expression (α-SMA): 25-35% | up-regulation of collagen deposition into the matrix of fibroblasts [3]: 20-50%
